Data on twelve substances can be found in US5968751A, “Method for detecting the presence of protein C antibody in a fluid sample” (The Scripps Research Institute, priority 1997, dated 1999).

Where two headings read alike, the source gives them in different places. No end group written: not given here. Where only a bound is given, the exact number is not on record here.

What all share (assay type): biochemical
One assay has as its target Factor IXa (Homo sapiens, UniProt P00740). As to the kind of experiment: Factor IXa-1 Stage clotting assay. The procedure: The Factor IXa-1 Stage assay was conducted essentially as the Factor Xa-1 Stage clotting assay above, except that Factor Xa was omitted, and Factor IXa was added in its place. In that assay, the IC50 for peptides X404-418, X415-429, IX395-409, IX400-414, IX315-330, and IX321-335 were 50, 30, 25, 50, 30 and 30.

The target of another assay is T1, tenase (Homo sapiens, UniProt P00740).
T1 construct: 30 μl of 3.5 nM factor IXaβ (Enzyme Research Labs) in BBS+OV; purchased Enzyme Research Labs (factor IXaβ, factor X); Armour Pharmaceutical, Chicago (Monoclate P)
T1 sequence (P00740 47-191): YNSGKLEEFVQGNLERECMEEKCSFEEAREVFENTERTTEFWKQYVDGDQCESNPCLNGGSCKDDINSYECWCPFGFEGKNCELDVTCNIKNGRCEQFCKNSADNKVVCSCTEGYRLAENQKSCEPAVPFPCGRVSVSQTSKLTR
T1 sequence (P00740 227-461): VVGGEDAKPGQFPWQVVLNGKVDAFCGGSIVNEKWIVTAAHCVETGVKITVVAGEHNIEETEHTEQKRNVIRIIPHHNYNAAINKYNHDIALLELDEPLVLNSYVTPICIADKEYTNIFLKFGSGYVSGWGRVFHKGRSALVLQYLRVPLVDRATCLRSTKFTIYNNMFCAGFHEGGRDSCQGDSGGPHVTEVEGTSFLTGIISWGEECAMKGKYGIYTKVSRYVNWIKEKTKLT
The assay is described as follows: tenase assay (Factor Xa generation). As to conditions: read-out: IC50 inhibition of tenase. The procedure: The tenase assay was conducted both in the presence and absence of Factor VIIIa. The procedure for the tenase assay varied depending on this variable and is described hereafter.
Peptides prepared in Example 1 were dissolved in water and then 1/2 into 50 mM Barbital, 200 mM NaCl, 0.2% NaN3, 2.5 mg/ml Ovalbumin (5 times recrystallized, salt free, from American Biorganics Inc., New York, pH=7.5). […]. Before using them, they were made 250 μM into BBs +1.25 mg/ml Ovalbumin (BBS+OV) containing CaCl2 for a final concentration of 25 mM and they were preincubated for 10 minutes at 37° C. These vesicles were allowed to cool to room temperature before being added to the reaction mixture. Monoclate P (Armour Pharmaceutical, Chicago) 114 U VIII:C/ml frozen in water was thawed at 37° C. and immediately diluted to 6 U/ml into BBS+OV (22° C.). A 0.35 nM thrombin-containing solution (Enzyme Research Labs., Southbend, Ind.) was prepared by admixing 1/100 volume of stock solution containing 35 nM in BBS+OV, and maintained for 3 minutes at 22° C. Thrombin activity was stopped by adding 1/100 volume of a 50 μM stock solution in 1 mM HCl of Phe-Pro-Arg-Chloromethyl ketone (PPACK, Bachem Feinchmikallen AG, Bubendorf, Switzerland). […] The thrombin treated Monoclate P was used immediately in the Xa generation assay.
For the assay, 30 μl of peptide dilutions or BBS+OV as 0 μM peptide control were admixed with 30 μl of thrombin-treated Monoclate P and maintained 10 minutes at 22° C. Then 30 μl of Cacl2 -phospholipid vesicles prepared as described above were added, followed immediately by 30 μl of 3.5 nM factor IXaβ (Enzyme Research Labs) in BBS+OV. The reaction was started by adding 30 μl of 250 nM factor X (Enzyme Research Labs) in BBS+OV. All reagents were at 22° C.
Aliquots of 20 μl were drawn at time 0, 1, 2, 3, 4 and 5 minutes of maintenance at 22° C. and diluted to 160 μl of 50 mM TrisHCl, 100 mM NaCl, 5 mM EDTA and 0.1 mg/ml Ovalbumin pH=8.0. Once all aliquots were drawn, 20 μl 2.0 mM S-2765 were added and the increase of A 405 at 22° C. was recorded in a model EL 312 Microplate Biokinetics Reader (BIO-TEK Instruments Inc., Vermont).
No amidolytic activity was observed when factor X was omitted from the reaction mixture.
Phospholipid vesicles prepared as described above were admixed with BBS+OV containing CaCl2 to obtain final concentrations of 312.5 μM vesicles and 20 mM CaCl2, and were premaintained for 10 minutes at 37° C. Before admixing, all the reagents were maintained for 5 minutes in a 37° C. waterbath.
For the assay, 100 μl of the phospholipid CaCl2 mix were admixed with 100 μl of peptide dilutions in BBS+OV or BBS+OV (as 0 μM peptide control) and 25 μl of 100 nM factor IXaβ in BBS+OV. The reaction was started immediately by adding 25 μl of 10 μM factor X in BBS+OV. All experiments were done at 37° C.
Aliquots of 40 μl were drawn at time 0, 5, 10, 15, 20 and 25 minutes of incubation at 37° C. and diluted to 140 μl 50 mM TrisHCl, 100 mM NaCl, 10 mM EDTA, and 1.25 mg/ml Ovalbumin pH=8.0. Once all aliquots were drawn, 20 μl 20.0 mM S-2765 were added and the increase of A 405 at 22° C. was recorded in a model EL 312 Microplate Biokinetics Reader.

The target in the next assay is APC (Homo sapiens, UniProt P04070). As to the kind of experiment: APTT and Xa-1-stage coagulation assays, inhibition of APC anticoagulant activity. The settings on record: read-out: IC90 ** μM (concentration of peptide that inhibits 90% of APC anticoagulant activity). Details: Protein C consists of a 155 amino acid residue light chain and a 262 amino acid residue heavy chain; from tissue; host or cells: human plasma factor IX concentrate. As to the method: The effect of the synthetic peptides on APC anticoagulant activity were determined using the APTT assay in the presence of either normal citrate anticoagulated plasma (NHP) or protein S depleted plasma (PSDP). The assays were performed essentially as described. See Marlar et al., Blood, 59:1067-1072 […]; Suzuki et al., J. Biol. Chem., 258:163-168 (1983); Gruber et al., Blood, 73:639-642 (1989); Ohlin et al., Biochem., 29:644-651 (1990). NHP was purchased from George King Bio-Medical, Inc. (Overland Park, Kans.). PSDP was prepared from a normal human citrate-anticoagulated plasma pool from ten healthy donors. Protein S was immunodepleted from the NHP by immunoaffinity chromatography of NHP over an anti-protein S antibody column to form PSDP. The anti-protein S antibody column was prepared by coupling 100 mg of a monoclonal, high-affinity, calcium-independent anti-PS antibody, designated S7, to 30 ml of CNBr-activated Sepharose 4B (Pharmacia) as described in Example 2cl).
APC, sequence (P04070 43-197 limits assumed): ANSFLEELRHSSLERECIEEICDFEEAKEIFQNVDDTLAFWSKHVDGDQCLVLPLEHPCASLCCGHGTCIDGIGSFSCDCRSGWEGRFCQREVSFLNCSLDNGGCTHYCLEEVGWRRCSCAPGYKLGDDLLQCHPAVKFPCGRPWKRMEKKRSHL
APC, sequence (P04070 212-450 limits assumed): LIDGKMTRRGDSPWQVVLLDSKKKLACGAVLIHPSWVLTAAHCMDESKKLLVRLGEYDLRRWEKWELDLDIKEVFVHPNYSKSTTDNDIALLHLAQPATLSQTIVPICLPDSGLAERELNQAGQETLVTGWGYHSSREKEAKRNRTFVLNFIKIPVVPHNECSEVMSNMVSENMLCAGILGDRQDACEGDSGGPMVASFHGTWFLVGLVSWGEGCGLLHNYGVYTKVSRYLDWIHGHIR
For the APTT assay, APC was prepared as described in Example 2c2). […] The concentration of the APC used in the assay was initially optimized with respect to the sensitivity of the assay towards APC-induced prolongation of clotting time compared to clotting time without APC.
Once the optimal concentration of APC was determined, peptides from the heavy and light chains of PC and control scrambled peptides listed below in Example 5a2) in Tables 6 and 7 were then separately admixed for a final concentration of 500 μM with 10 nM APC in 100 μl of TBS-BSA at pH 7.4 to form peptide-APC admixtures. Peptides were prepared as described in Example 1. The resulting admixtures were maintained for ten minutes at 37° C. Separate aliquots of peptides maintained under the same conditions in the absence of APC served as controls for the inhibitory effect of synthetic peptides on APC anticoagulant activity. After the maintenance period, 100 μl of NHP and 100 μl APTT-reagent Thrombosil (Ortho Diagnostics, Raritan, N.J.) were admixed into each peptide admixture and maintained for 200 seconds at 37° C. to form a pre-coagulation admixture. In some experiments, PSDP was used in the place of NHP to determine the effect of Protein S on the assay system. Coagulation was then initiated by the admixture of 100 μl of 30 mM CaCl2 in TBS prewarmed to 37° C. to each of the pre-coagulation admixtures. The time for clot formation was measured by an Electra 700 Automatic Coagulation Timer (Medical Laboratory Automation, Inc., Mount Vernon, N.Y.). Each peptide's effect was determined in duplicate.
For peptides at a concentration of 500 μM that inhibited at least 50% of APC anticoagulant activity, analysis of dose-response was subsequently conducted.
For testing the inhibition of the synthetic peptides on APC activity described above, Xa-1-stage coagulation assays were also performed as described. See Seegers et al., Thrombosis Res., 13:233-243 (1978); Marlar et al., supra; and Walker et al., J. Biol. Chem., 265:1484-1489 (1990).

The next assay addresses T2, Factor Xa (Homo sapiens, UniProt P00742).
T2 construct: purchased Enzyme Research Laboratories, Southbend, Ind
As to the kind of experiment: Factor Xa clotting activity in NHP without added APC (Factor Xa-1 Stage clotting assay).

Factor IXa, sequence (P00740 47-191 limits assumed): as the sequence (P00740 47-191) above
Factor IXa, sequence (P00740 227-461 limits assumed): as the sequence (P00740 227-461) above
T2 sequence (P00742 41-179 limits assumed): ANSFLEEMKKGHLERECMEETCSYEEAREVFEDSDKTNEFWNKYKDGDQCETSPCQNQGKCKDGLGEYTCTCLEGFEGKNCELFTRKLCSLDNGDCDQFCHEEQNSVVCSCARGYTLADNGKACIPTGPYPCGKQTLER
T2 sequence (P00742 235-488 limits assumed): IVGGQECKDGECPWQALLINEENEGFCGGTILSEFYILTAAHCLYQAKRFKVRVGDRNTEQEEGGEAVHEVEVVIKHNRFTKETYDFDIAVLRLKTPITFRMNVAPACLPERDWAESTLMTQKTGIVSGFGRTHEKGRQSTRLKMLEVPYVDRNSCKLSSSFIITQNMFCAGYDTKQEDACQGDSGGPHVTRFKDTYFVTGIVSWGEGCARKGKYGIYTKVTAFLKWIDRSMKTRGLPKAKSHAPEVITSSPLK

By IC50 is commonly meant the point on the concentration scale where inhibition reaches its midpoint. As for “KVSRYVNWIKEKTKL-NH2 [IX400-414, Lys-Val-Ser-Arg-Tyr-Val-Asn-Trp-Ile-Lys-Glu-Lys-Thr-Lys-Leu]”, the results for the IC50 against Factor IXa and on tenase (presence of Factor VIIIa) were 50 µM and 100 to 140 µM, respectively. In the case of VLNFIKIPVVPHNEC-NH2 [PC317-331], the IC90 on APC is 500 µM. NLKETWTANVGKGQP [PT463-478] displayed an IC50 in the assay with Factor Xa above 500 µM.

In turn, “QVVNLPIVERPVSKD-NH2 [PT481-495, Gln-Val-Val-Asn-Leu-Pro-Ile-Val-Glu-Arg-Pro-Val-Ser-Lys-Asp]” yielded an IC50 at Factor Xa above 500 µM.

With “ARKGKYGIYTKVTAF-NH2 [X404-418, Ala-Arg-Lys-Gly-Lys-Tyr-Gly-Ile-Tyr-Thr-Lys-Val-Thr-Ala-Phe]”, the figures for the concentration for half-maximal inhibition (IC50) against Factor IXa, on Factor Xa and at tenase (presence of Factor VIIIa) were 50 µM, 50 µM and around 150 µM, respectively. Regarding “LVLQYLRVPLVDRAT-NH2 [IX321-335, Leu-Val-Leu-Gln-Tyr-Leu-Arg-Val-Pro-Leu-Val-Asp-Arg-Ala-Thr]”, the IC50 against Factor IXa was 30 µM; on tenase (presence of Factor VIIIa), 100 to 140 µM. As to “YGIYTKVSRYVNWIK-NH2 [IX395-409, Tyr-Gly-Ile-Tyr-Thr-Lys-Val-Ser-Arg-Tyr-Val-Asn-Trp-Ile-Lys]”, the IC50 against Factor IXa was 25 µM; on tenase (absence of VIIIa), 40 to 60 µM; on tenase (presence of Factor VIIIa), around 6 µM. For the substance “EKGRQSTRLKMLEVPY-NH2 [X329-344, Glu-Lys-Gly-Arg-Gln-Ser-Thr-Arg-Leu-Lys-Met-Leu-Glu-Val-Pro-Tyr]”, on Factor Xa, the IC50 is 500 µM.

For the substance “HKGRSALVLQYLRVPL-NH2 [IX315-330, His-Lys-Gly-Arg-Ser-Ala-Leu-Val-Leu-Gln-Tyr-Leu-Arg-Val-Pro-Leu]”, the figures for the IC50 on Factor IXa, on tenase (absence of VIIIa) and at tenase (presence of Factor VIIIa) were 30 µM, 40 to 60 µM and around 2 µM, respectively. Turning to “GKGQPSVLQVVNLPI-NH2 [PT473-487, Gly-Lys-Gly-Gln-Pro-Ser-Val-Leu-Gln-Val-Val-Asn-Leu-Pro-Ile]”, the IC50 on Factor Xa is 25 µM. With “YGFYTHVFRLKKWIQ-NH2 [PT557-571, Tyr-Gly-Phe-Tyr-Thr-His-Val-Phe-Arg-Leu-Lys-Lys-Trp-Ile-Gln]”, the 50% inhibitory concentration (IC50) against Factor Xa came to 50 µM.

Turning to “VTAFLKWIDRSMKTR-NH2 [X415-429, Val-Thr-Ala-Phe-Leu-Lys-Trp-Ile-Asp-Arg-Ser-Met-Lys-Thr-Arg]”, the values for the 50% inhibitory concentration (IC50) against Factor IXa, on Factor Xa and on tenase (presence of Factor VIIIa) were 30 µM, 115 µM and around 45 µM, respectively.
